Experimental data from US20250003940A1, “BIOSENSOR, BIOSENSOR COMPONENTS, AND USE THEREOF” (VICTORIA LINK LIMITED, priority 2021, published 2025).
Read-outs that look alike come from different tables or passages of the source.

What was measured:
[1] = target: T1, Helicobacter pylori glutamine synthetase (HpGS), SEQ ID NO: 2 (Helicobacter pylori, UniProt P94845); assay: GS-BpsA coupled assay kinetics of HpGS for glutamate and ammonium (A590, indigoidine); assay type: biochemical; conditions: 37° C., coupled with BpsA
T1 construct: BpsA-coupled assay
T1 sequence (P94845 1-481): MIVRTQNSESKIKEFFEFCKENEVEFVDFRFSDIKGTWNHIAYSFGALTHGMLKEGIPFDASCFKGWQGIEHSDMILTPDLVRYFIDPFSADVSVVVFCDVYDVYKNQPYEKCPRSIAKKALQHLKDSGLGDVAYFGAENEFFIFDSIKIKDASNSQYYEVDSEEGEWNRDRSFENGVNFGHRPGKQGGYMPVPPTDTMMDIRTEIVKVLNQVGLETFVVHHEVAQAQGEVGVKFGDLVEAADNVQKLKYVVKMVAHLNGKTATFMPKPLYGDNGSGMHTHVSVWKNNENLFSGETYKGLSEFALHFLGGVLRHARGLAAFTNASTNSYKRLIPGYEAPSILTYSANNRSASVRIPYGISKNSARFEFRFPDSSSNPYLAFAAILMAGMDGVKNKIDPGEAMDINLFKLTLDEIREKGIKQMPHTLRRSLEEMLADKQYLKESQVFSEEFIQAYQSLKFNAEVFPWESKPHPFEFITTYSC
Experimental: (§1) FIG. 6A: Sigmoidal kinetics data obtained when the GS from Helicobacter pylori (HpGS) is assayed in the presence of various concentrations of its substrate, glutamate. The concentration of GS and BpsA is 3 μM and 6 μM respectively. An optimised condition for the GS-BpsA assay was used. A range of glutamate concentrations (0-900 μM) was used in the assay. Rates were measured through the increase in absorbance at 590 nm at 37° C. Data are the mean values of three replicates and error bars indicate the standard error of the mean.
as §1, with “6B:” for “6A:”, “HpGS” for “the GS from Helicobacter pylori (HpGS)”, “ammonium.” for “glutamate.”, “0-900 μM NH4Cl” for “glutamate concentrations (0-900 μM)”
(§2) FIG. 21A: Amino acid sequence for Helicobacter pylori glutamine synthetase enzyme. SEQ ID NO: 2. The His-tag sequence used for the protein fusion is also shown.
(§3) Optimised ATP/pH and Mg^2+ conditions were utilised with varying concentrations of KCl (FIG. 5). A concentration of 10 mM KCl was chosen to be optimal based on this experiment. The final optimised reaction mixture for the GS-BpsA assay was determined to be 100 mM Tris Base pH 11.4, 15 mM ATP, 20 mM MgCl2, and 10 mM KCl.
(§4) Using optimised assay conditions for the GS-BpsA coupled assay, kinetics data for HpGS were collected for its substrates glutamate and ammonium. For these experiments, the concentrations of GS and BpsA were 3 μM and 6 μM respectively. Optimised conditions for the GS-BpsA assay were used. A range of 0-1000 μM glutamate concentration and 1000 μM NH4Cl was used in the assay. Rates were measured through the increase in absorbance for 5 minutes at 590 nm and 37° C.
(§5) GS enzymes have been previously found to display non-Michaelis-Menten, sigmoidal kinetics (Murray et al., 2013). As expected, the data were fit better by the Hill equation for cooperative enzymes than by the Michaelis-Menten equation (FIGS. 6A-6B). The Hill coefficient indicates the estimate of the number of active sites that are acting cooperatively, which has a value of approximately 2 for both substrates.

[2] = GS activity assay coupled with PK/LDH (NADH oxidation, A340); assay type: biochemical; conditions: 37° C., decrease of absorbance at 340 nm
Experimental: (§6) FIG. 3: GS activity assay. The assay was adapted from Shapiro et. al. The reaction mixture included 30 mM imidazole, 100 mM Na-glutamate, 8.5 mM adenosine 5′-triphosphate (ATP), 1 mM phosphoenolpyruvate (PEP), 60 mM magnesium chloride (MgCl2), 20 mM potassium chloride (KCl), 45 mM ammonium chloride (NH4Cl), 0.25 mM (3-nicotinamide adenine dinucleotide (NADH), 28 units pyruvate kinase/40 units L-lactic dehydrogenase (PK/LDH). The reactions were performed at 37° C. and rates were measured by the decrease of absorbance at 340 nm.
For preliminary experiments, glutamine synthetase from Escherichia coli (E. coli) was successfully expressed, purified and tested for activity. This assay took advantage of the biosynthetic reaction of GS (which produces ADP) coupled with lactate dehydrogenase and pyruvate kinase to oxidise NADH (Shapiro & Stadtman, 1970).
as §6, with “The” for “FIG. 3: GS activity assay. The assay was adapted from Shapiro et. al. The”, “0-nicotinamide” for “(3-nicotinamide”
The soluble GS enzymes were tested. […]

[3] = Activity assay of purified arginine deiminase; assay type: biochemical
Experimental: We attempted to express and purify the three ADI enzymes in E. coli. After numerous attempts, we were unable to express the M. hominis or P. putida enzymes in a soluble form. Each protein was expressed solely in inclusion bodies, under all conditions tested (FIG. 14A). Purification from inclusion bodies and refolding were also attempted, without success. In contrast, we were able to express and purify the P. aeruginosa ADI enzyme (average yield=40 mg per litre of bacterial culture).

[4] = substrate: N[C@@H](CCC(=O)O)C(=O)O; assay: GS-BpsA coupled assay kinetics of HpGS for glutamate and ammonium (A590, indigoidine); assay type: biochemical, Helicobacter pylori; conditions: coupled with BpsA, pH 11.4; for K0.5: Hill equation
Experimental: as §1
as §1, with “6B:” for “6A:”, “HpGS” for “the GS from Helicobacter pylori (HpGS)”, “ammonium.” for “glutamate.”, “0-900 μM NH4Cl” for “glutamate concentrations (0-900 μM)”
as §2, §3, §4, §5

[5] = substrate: N=C(N)NCCC[C@H](N)C(=O)O; assay: Michaelis-Menten kinetics of RcArgZ with arginine (glutamate dehydrogenase coupled assay, A340); assay type: biochemical, Rhodospirillum centenum; conditions: other: 37° C., 0-3000 μM arginine, decrease in absorbance at 340 nm
Experimental: FIG. 17: Michaelis-Menten kinetics of RcArgZ with arginine. A range of 0-3000 μM arginine concentration was used in the assay. Rates were measured through the decrease in absorbance at 340 nm at 37° C. Data are the mean values of three replicates and error bars indicate the standard error of the mean.
FIG. 22A: Amino acid sequence for Rhodospirillum centenum arginine dihydrolase enzyme. SEQ ID NO: 3. This sequence is derived from the sequence listed as accession number B6IRA8 in the UniProt database, but with the deletion of amino acid residues 2 to 18 from the UniProt sequence. These residues were deleted because they were predicted to encode a disordered region in the polypeptide. The His-tag sequence used for the protein fusion is also shown.
For this reason, we ordered the gene for this isolated domain from a commercial gene synthesis company (Twist Bioscience). […]
RcArgZ activity was quantified in vitro by coupling it with glutamate dehydrogenase (GDH) in a spectrophotometric assay. […]
Therefore, a decrease in absorbance at 340 nm is directly relative to glutamate production, and because GDH is in excess in the reaction, it is directly relative to RcArgZ activity to produce ammonium from arginine.
Activity data for RcArgZ were collected across a range of arginine concentrations. […] Rates were measured through the decrease in absorbance at 340 nm at 37° C.

[6] = other: Biological Replicate 1, 37° C.
[7] = other: Biological Replicate 2, 37° C.

For N [Ammonium, ammonium], which “kcat (estimated from Vmax)” value [1] is on record?
The value was 0.8 ± 0.03 s⁻¹.

And the Hill coefficient ([1]; Hill equation)?
The Hill coefficient was 2.0.

And the Km ([1]; read-out: Khalf (concentration of the substrate at the half-maximal velocity))?
Its Km is about 100 µM.

And the “kcat (ammonium varied)” value ([1]; Biological Replicate 1)?
Its value is 0.78 s⁻¹.

And the Km ([1]; Biological Replicate 1, Hill equation, read-out: Khalf (ammonium))?
Its Km is 96 µM.

What about the “kcat (ammonium varied)” value ([1]; Biological Replicate 2) of the same molecule?
The value was 0.78 s⁻¹.

What about the Km ([1]; Biological Replicate 2, Hill equation, read-out: Khalf (ammonium)) of the same molecule?
Its Km is 97 µM.

For “EcGS: glutamine synthetase from Escherichia coli, SEQ ID NO: 14”, which “GS activity (ATP hydrolysis) in PK/LDH assay” value [2] is on record?
Its value is “only slightly active”.

Which “activity of purified arginine deiminase” value [3] does the source give for “P. aeruginosa ADI: Pseudomonas aeruginosa arginine deiminase enzyme expressed and purified from E. coli” here?
Its value is “did not have any activity”.

B1: Helicobacter pylori glutamine synthetase (HpGS), SEQ ID NO: 2 (Helicobacter pylori 26695) (protein)
chain: MIVRTQNSESKIKEFFEFCKENEVEFVDFRFSDIKGTWNHIAYSFGALTHGMLKEGIPFDASCFKGWQGIEHSDMILTPDLVRYFIDPFSADVSVVVFCDVYDVYKNQPYEKCPRSIAKKALQHLKDSGLGDVAYFGAENEFFIFDSIKIKDASNSQYYEVDSEEGEWNRDRSFENGVNFGHRPGKQGGYMPVPPTDTMMDIRTEIVKVLNQVGLETFVVHHEVAQAQGEVGVKFGDLVEAADNVQKLKYVVKMVAHLNGKTATFMPKPLYGDNGSGMHTHVSVWKNNENLFSGETYKGLSEFALHFLGGVLRHARGLAAFTNASTNSYKRLIPGYEAPSILTYSANNRSASVRIPYGISKNSARFEFRFPDSSSNPYLAFAAILMAGMDGVKNKIDPGEAMDINLFKLTLDEIREKGIKQMPHTLRRSLEEMLADKQYLKESQVFSEEFIQAYQSLKFNAEVFPWESKPHPFEFITTYSC
notes: BpsA-coupled assay
For B1, which K0.5 [4, 6] is on record?
The K0.5 was 350 µM.

And the kcat [4, 6]?
Its kcat is 0.28 s⁻¹.

What about the K0.5 [4, 7] of the same molecule?
The K0.5 was 350 µM.

And the kcat [4, 7]?
Its kcat is 0.45 s⁻¹.

B2: Rhodospirillum centenum arginine dihydrolase (RcArgZ), truncated: deletion of residues 2 to 18 of UniProt B6IRA8, SEQ ID NO: 3 (Rhodospirillum centenum SW) (protein)
chain: APPRIIMCAPDHFEVSYTINPWMRPDEWEARRSELSGAAAAGWSALRRRLQQLGAAVELVAPRSGLPDLVFTANAAVVLDGKALVARFRHPERRPEEPHFRRFFDGLAARGLLDEVHDMPPGVCLEGAGDCVHDAGRGVFFLGHGFRSDREAAAVVADLFGEEVEPLELVDPRFYHMDTALCPLSGGEVLYVPGAFSAEGRGRLRERIGADRLIEVPEADAVRLAANAVNLGRDVVLAEASDDLKAALAERGYSVHEVPIRSFGLSGGSAFCLTLRLDRRSNRRSGRPVGGTGPGAAADAPGQPALLD
notes: synthetic gene (Twist Bioscience); GDH-coupled assay
Which results are given for B2?
Km [5]: 360 ± 30 µM; kcat [5]: 10.4 s⁻¹
